ChEMBL document CHEMBL1201861, “Genomics of Drug Sensitity in Cancer screening data, Wellcome Trust Sanger Institute”

Assays:
Experiment in all cases: cells
CW-2 = format: functional, cell-based, Homo sapiens; details: Homo sapiens, CW-2
Description: SANGER: Inhibition of human CW-2 cell growth in a cell viability assay.

HT-1080 = format: functional, cell-based, Homo sapiens; details: Homo sapiens, HT-1080
Description: SANGER: Inhibition of human HT-1080 cell growth in a cell viability assay.

Detroit 562 = format: functional, cell-based, Homo sapiens; details: Homo sapiens, Detroit 562
LXF-289 cell line = format: functional, cell-based, Homo sapiens; details: Homo sapiens, LXF-289
Description: SANGER: Inhibition of human LXF-289 cell growth in a cell viability assay.

HOP-62 = format: functional, cell-based, Homo sapiens; details: Homo sapiens, HOP-62
Description: SANGER: Inhibition of human HOP-62 cell growth in a cell viability assay.

BFTC-909 = format: functional, cell-based, Homo sapiens; details: Homo sapiens, BFTC-909
Description: SANGER: Inhibition of human BFTC-909 cell growth in a cell viability assay.

RCM-1 = format: functional, cell-based, Homo sapiens; details: Homo sapiens, RCM-1
Description: SANGER: Inhibition of human RCM-1 cell growth in a cell viability assay.

Calu-6 = format: functional, cell-based, Homo sapiens; details: Homo sapiens, Calu-6
Description: SANGER: Inhibition of human Calu-6 cell growth in a cell viability assay.

PC-3 = format: functional, cell-based, Homo sapiens; details: Homo sapiens, PC-3
Description: SANGER: Inhibition of human PC-3 cell growth in a cell viability assay.

Mo = format: functional, cell-based; details: Homo sapiens
Description: SANGER: Inhibition of human Mo-T cell growth in a cell viability assay.

Capan-2 = format: functional, cell-based, Homo sapiens; details: Homo sapiens, Capan-2
Description: SANGER: Inhibition of human Capan-2 cell growth in a cell viability assay.

BB49-HNC = format: functional, cell-based, Homo sapiens; details: Homo sapiens, BB49-HNC
Description: SANGER: Inhibition of human BB49-HNC cell growth in a cell viability assay.

MLMA = format: functional, cell-based, Homo sapiens; details: Homo sapiens, MLMA
Description: SANGER: Inhibition of human MLMA cell growth in a cell viability assay.

SNU-5 = format: functional, cell-based; details: Homo sapiens
Description: SANGER: Inhibition of human NCI-SNU-5 cell growth in a cell viability assay.

LB2518-MEL = format: functional, cell-based, Homo sapiens; details: Homo sapiens, LB2518-MEL
Description: SANGER: Inhibition of human LB2518-MEL cell growth in a cell viability assay.

LS-411N = format: functional, cell-based, Homo sapiens; details: Homo sapiens, LS-411N
KALS-1 = format: functional, cell-based, Homo sapiens; details: Homo sapiens, KALS-1
HO-1-N-1 = format: functional, cell-based, Homo sapiens; details: Homo sapiens, HO-1-N-1
Description: SANGER: Inhibition of human HO-1-N-1 cell growth in a cell viability assay.

KINGS-1 = format: functional, cell-based, Homo sapiens; details: Homo sapiens, KINGS-1
Description: SANGER: Inhibition of human KINGS-1 cell growth in a cell viability assay.

C8166 = format: functional, cell-based; details: Homo sapiens
Description: SANGER: Inhibition of human C8166 cell growth in a cell viability assay.

Ca-Ski = format: functional, cell-based; details: Homo sapiens
Description: SANGER: Inhibition of human Ca-Ski cell growth in a cell viability assay.

SK-NEP-1 = format: functional, cell-based; details: Homo sapiens
Description: SANGER: Inhibition of human SK-NEP-1 cell growth in a cell viability assay.

HD-MY-Z = format: functional, cell-based, Homo sapiens; details: Homo sapiens, HD-MY-Z
Description: SANGER: Inhibition of human HD-MY-Z cell growth in a cell viability assay.

T-24 = format: functional, cell-based, Homo sapiens; details: Homo sapiens, T-24
Description: SANGER: Inhibition of human T-24 cell growth in a cell viability assay.

NCI-H2126 = format: functional, cell-based, Homo sapiens; details: Homo sapiens, NCI-H2126
Description: SANGER: Inhibition of human NCI-H2126 cell growth in a cell viability assay.

COLO-792 = format: functional, cell-based, Homo sapiens; details: Homo sapiens, COLO-792
Description: SANGER: Inhibition of human COLO-792 cell growth in a cell viability assay.

JAR = format: functional, cell-based, Homo sapiens; details: Homo sapiens, JAR
Description: SANGER: Inhibition of human JAR cell growth in a cell viability assay.

BPH-1 = format: functional, cell-based, Homo sapiens; details: Homo sapiens, BPH-1
Description: SANGER: Inhibition of human BPH-1 cell growth in a cell viability assay.

NCI-H661 = format: functional, cell-based, Homo sapiens; details: Homo sapiens, NCI-H661
Description: SANGER: Inhibition of human NCI-H661 cell growth in a cell viability assay.

BEN = format: functional, cell-based, Homo sapiens; details: Homo sapiens, BEN
Description: SANGER: Inhibition of human BEN cell growth in a cell viability assay.

HCC2218 = format: functional, cell-based; details: Homo sapiens
Description: SANGER: Inhibition of human HCC2218 cell growth in a cell viability assay.

NCI-H1395 = format: functional, cell-based, Homo sapiens; details: Homo sapiens, NCI-H1395
Description: SANGER: Inhibition of human NCI-H1395 cell growth in a cell viability assay.

SK-MEL3 = format: functional, cell-based, Homo sapiens, SK-MEL-3; details: Homo sapiens, SK-MEL3
Description: SANGER: Inhibition of human SK-MEL-3 cell growth in a cell viability assay.

KYSE-510 = format: functional, cell-based, Homo sapiens; details: Homo sapiens, KYSE-510
Description: SANGER: Inhibition of human KYSE-510 cell growth in a cell viability assay.

AU565 = format: functional, cell-based, Homo sapiens; details: Homo sapiens, AU565
Description: SANGER: Inhibition of human AU565 cell growth in a cell viability assay.

EW-24 = format: functional, cell-based; details: Homo sapiens
Description: SANGER: Inhibition of human EW-24 cell growth in a cell viability assay.

HCC 2998 = format: functional, cell-based, Homo sapiens; details: Homo sapiens, HCC 2998
Description: SANGER: Inhibition of human HCC2998 cell growth in a cell viability assay.

OE19 = format: functional, cell-based, Homo sapiens; details: Homo sapiens, OE19
Description: SANGER: Inhibition of human OE19 cell growth in a cell viability assay.

KS-1 = format: functional, cell-based, Homo sapiens; details: Homo sapiens, KS-1
SW1088 = format: functional, cell-based, Homo sapiens; details: Homo sapiens, SW1088
Description: SANGER: Inhibition of human SW1088 cell growth in a cell viability assay.

YKG-1 = format: functional, cell-based, Homo sapiens; details: Homo sapiens, YKG-1
Description: SANGER: Inhibition of human YKG-1 cell growth in a cell viability assay.

DOHH-2 = format: functional, cell-based; details: Homo sapiens
Description: SANGER: Inhibition of human DOHH-2 cell growth in a cell viability assay.

A-427 = format: functional, cell-based, Homo sapiens; details: Homo sapiens, A-427
Description: SANGER: Inhibition of human A427 cell growth in a cell viability assay.

IGROV-1 = format: functional, cell-based, Homo sapiens; details: Homo sapiens, IGROV-1
Description: SANGER: Inhibition of human IGROV-1 cell growth in a cell viability assay.

IST-SL1 = format: functional, cell-based, Homo sapiens; details: Homo sapiens, IST-SL1
Description: SANGER: Inhibition of human IST-SL1 cell growth in a cell viability assay.

CP50-MEL-B = format: functional, cell-based, Homo sapiens; details: Homo sapiens, CP50-MEL-B
Description: SANGER: Inhibition of human CP50-MEL-B cell growth in a cell viability assay.

NCI-H1651 = format: functional, cell-based, Homo sapiens; details: Homo sapiens, NCI-H1651
Description: SANGER: Inhibition of human NCI-H1651 cell growth in a cell viability assay.

T47D = format: functional, cell-based, Homo sapiens; details: Homo sapiens, T47D
Description: SANGER: Inhibition of human T47D cell growth in a cell viability assay.

NCI-H1623 = format: functional, cell-based, Homo sapiens; details: Homo sapiens, NCI-H1623
Description: SANGER: Inhibition of human NCI-H1623 cell growth in a cell viability assay.

MZ7-mel = format: functional, cell-based, Homo sapiens; details: Homo sapiens, MZ7-mel
HCC1569 = format: functional, cell-based, Homo sapiens; details: Homo sapiens, HCC1569
Description: SANGER: Inhibition of human HCC1569 cell growth in a cell viability assay.

## CN(C)C/C=C/C(=O)Nc1cc2c(Nc3ccc(F)c(Cl)c3)ncnc2cc1O[C@H]1CCOC1 [AFATINIB]
CW-2
  IC50: 469 nM
HT-1080
  IC50: > 500 nM
Detroit 562
  IC50: > 500 nM
LXF-289 cell line
  IC50: > 500 nM
HOP-62
  IC50: > 500 nM
BFTC-909
  IC50: > 500 nM
RCM-1
  IC50: > 500 nM
Calu-6
  IC50: > 500 nM
PC-3
  IC50: > 500 nM
Mo
  IC50: > 500 nM
Capan-2
  IC50: > 500 nM
BB49-HNC
  IC50: > 500 nM
MLMA
  IC50: > 500 nM
SNU-5
  IC50: > 500 nM
LB2518-MEL
  IC50: > 500 nM
LS-411N
  IC50: > 500 nM
KALS-1
  IC50: > 500 nM
HO-1-N-1
  IC50: 279 nM
KINGS-1
  IC50: > 500 nM
C8166
  IC50: > 500 nM
Ca-Ski
  IC50: > 500 nM
SK-NEP-1
  IC50: > 500 nM
HD-MY-Z
  IC50: > 500 nM
T-24
  IC50: > 500 nM
NCI-H2126
  IC50: > 500 nM
COLO-792
  IC50: > 500 nM
JAR
  IC50: > 500 nM
BPH-1
  IC50: 59.9 nM
NCI-H661
  IC50: > 500 nM
BEN
  IC50: > 500 nM
HCC2218
  IC50: 9.87 nM
NCI-H1395
  IC50: > 500 nM
SK-MEL3
  IC50: > 500 nM
KYSE-510
  IC50: > 500 nM
AU565
  IC50: 85 nM
EW-24
  IC50: > 500 nM
HCC 2998
  IC50: > 500 nM
OE19
  IC50: > 500 nM
KS-1
  IC50: > 500 nM
SW1088
  IC50: > 500 nM
YKG-1
  IC50: > 500 nM
DOHH-2
  IC50: > 500 nM
A-427
  IC50: > 500 nM
IGROV-1
  IC50: 260 nM
IST-SL1
  IC50: > 500 nM
CP50-MEL-B
  IC50: > 500 nM
NCI-H1651
  IC50: > 500 nM
T47D
  IC50: > 500 nM
NCI-H1623
  IC50: 80.2 nM
MZ7-mel
  IC50: > 500 nM
HCC1569
  IC50: > 500 nM
